From patent publication US20150105252A1, “SUBSTITUTED PYRAZOLES AS HERBICIDES” (E I DU PONT DE NEMOURS AND COMPANY, priority 2013, published 2015)

Key:
foxtail, green = assay: Test C postemergence; assay type: in vivo, Setaria viridis; conditions: for Foxtail, Green plant response rating: scale 0 to 100
From the text: (§1) Seeds of plant species selected from blackgrass (Alopecurus myosuroides), ryegrass, Italian (Italian ryegrass, Lolium multiflorum), wheat (winter wheat, Triticum aestivum), galium (catchweed bedstraw, Galium aparine), corn (Zea mays), crabgrass, large (large crabgrass, Digitaria sanguinalis), foxtail, giant (giant foxtail, Setaria faberii), johnsongrass (Sorghum halepense), lambsquarters (Chenopodium album), morningglory (Ipomoea coccinea), nutsedge, yellow (yellow nutsedge, Cyperus esculentus), pigweed (redroot pigweed, Amaranthus retroflexus), ragweed (common ragweed, Ambrosia elation), soybean (Glycine max), barnyardgrass (Echinochloa crus-galli), oilseed rape (Brassica napus), waterhemp (common waterhemp, Amaranthus rudis), oat, wild (wild oat, Avena fatua), kochia (Kochia scoparia), Surinam grass (Brachiaria decumbens), foxtail, green (green foxtail, Setaria viridis), goosegrass (Eleusine indica), bromegrass, downy (downy bromegrass, Bromus tectorum), nightshade (eastern black nightshade, Solanum ptycanthum), cocklebur (common cocklebur, Xanthium strumarium), cupgrass, woolly (woolly cupgrass, Eriochloa villosa), bermudagrass (Cynodon dactylon), sunflower, (common oilseed sunflower, Helianthus annuus), Russian thistle (Salsola kali), and velvetleaf (Abutilon theophrasti) were planted into a blend of loam soil and sand and treated preemergence with test chemicals formulated in a non-phytotoxic solvent mixture which included a surfactant.
(§2) At the same time, plants selected from these crop and weed species and also chickweed (common chickweed, Stellaria media), canarygrass (littleseed canarygrass, Phalaris minor), and deadnettle (henbit deadnettle, Lamium amplexicaule), were planted in pots containing Redi-Earth® planting medium (Scotts Company, 14111 Scottslawn Road, Marysville, Ohio 43041) comprising spaghnum peat moss, vermiculite, wetting agent and starter nutrients and treated with postemergence applications of test chemicals formulated in the same manner. Plants ranged in height from 2 to 18 cm (1- to 4-leaf stage) for postemergence treatments. Treated plants and controls were maintained in a greenhouse for 13 to 15 days, after which time all species were compared to controls and visually evaluated. Plant response ratings, summarized in Table C, are based on a scale of 0 to 100 where 0 is no effect and 100 is complete control. A dash (-) response means no test result.

sunflower = assay: Test C preemergence; assay type: in vivo, Helianthus annuus; conditions: for Plant response rating (scale of 0 to 100), Sunflower: Preemergence, 250 g ai/ha; for Sunflower plant response rating / Plant response rating, Sunflower: preemergence; for Plant response rating, Sunflower: 62 g ai/ha, scale 0 to 100, 0 = no effect, 100 = complete control
From the text: as §1, §2

bromegrass, downy = assay: Test C preemergence; assay type: in vivo, Bromus tectorum; conditions: for Plant response rating (scale of 0 to 100), Bromegrass, Downy: Preemergence, 250 g ai/ha; for Bromegrass, Downy plant response rating / Plant response rating, Bromegrass, Downy: preemergence; for Plant response rating, Bromegrass, Downy: 62 g ai/ha, scale 0 to 100, 0 = no effect, 100 = complete control
From the text: as §1, §2

oat, wild = assay: Test C preemergence; assay type: in vivo, Avena fatua; conditions: for Plant response rating (scale of 0 to 100), Oat, Wild: Preemergence, 250 g ai/ha; for Oat, Wild plant response rating / Plant response rating, Oat, Wild: preemergence; for Plant response rating, Oat, Wild: 62 g ai/ha, scale 0 to 100, 0 = no effect, 100 = complete control
From the text: as §1, §2

goosegrass = assay: Test C preemergence; assay type: in vivo, Eleusine indica; conditions: for Plant response rating (scale of 0 to 100), Goosegrass: Preemergence, 250 g ai/ha; for Goosegrass plant response rating / Plant response rating, Goosegrass: preemergence; for Plant response rating, Goosegrass: 62 g ai/ha, scale 0 to 100, 0 = no effect, 100 = complete control
From the text: as §1, §2

kochia = assay: Test A preemergence; assay type: in vivo, Kochia scoparia
Method in brief: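 Greenhouse test in loam soil/sand blend; compounds formulated in non-phytotoxic solvent with surfactant, applied as preemergence directed soil spray or postemergence to plants 2–10 cm tall at one- to two-leaf stage. Injury rated visually versus untreated controls after approximately 10 days on a 0 (no effect) to 100 (complete control) scale.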

[1] = postemergence, 250 g ai/ha, scale 0 to 100 (0 no effect, 100 complete control)
[2] = postemergence, 62 g ai/ha, scale 0 to 100, 0 no effect, 100 complete control
[3] = postemergence, 125 g ai/ha, scale 0 to 100, 0 no effect, 100 complete control
[4] = 31 g ai/ha, scale 0 to 100 (0 no effect, 100 complete control), 13 to 15 days
[5] = 125 g ai/ha, scale 0 to 100, 0 is no effect, 100 is complete control
[6] = 125 g ai/ha, visual injury, 0 to 100 scale, approx. 10 days
[7] = 500 g ai/ha, visual injury after approx. 10 days, 0 to 100 scale (0 no effect, 100 complete control)

SMILES	Plant response rating, Foxtail, Green (foxtail, green; [1])	Plant response rating, Foxtail, Green (foxtail, green; [2])	Plant response rating, Foxtail, Green (foxtail, green; [3])	Plant response rating (scale of 0 to 100), Sunflower (sunflower)	Sunflower plant response rating (sunflower; [4])	Plant response rating, Sunflower (sunflower; 13 to 15 days)	Sunflower plant response rating (sunflower; [5])	Plant response rating (scale of 0 to 100), Bromegrass, Downy (bromegrass, downy)	Bromegrass, Downy plant response rating (bromegrass, downy; [4])	Plant response rating, Bromegrass, Downy (bromegrass, downy; 13 to 15 days)	Bromegrass, Downy plant response rating (bromegrass, downy; [5])	Plant response rating (scale of 0 to 100), Oat, Wild (oat, wild)	Oat, Wild plant response rating (oat, wild; [4])	Plant response rating, Oat, Wild (oat, wild; 13 to 15 days)	Oat, Wild plant response rating (oat, wild; [5])	Plant response rating (scale of 0 to 100), Goosegrass (goosegrass)	Goosegrass plant response rating (goosegrass; [4])	Plant response rating, Goosegrass (goosegrass; 13 to 15 days)	Goosegrass plant response rating (goosegrass; [5])	Foxtail, Green plant response rating (foxtail, green; Postemergence, 31 g ai/ha)	further results
CCc1cc(C(=O)NOC(C)C)nn1Cc1cccc(OC(F)(F)F)c1 [Compound 70]	80	5	80	5	0	0	5	80	20	35	40	65	5	10	50	98	60	80	95	–	–
Cc1cc(C(=O)NCC(F)(F)F)nn1Cc1ccnc(C(F)(F)F)c1 [Compound 74]	5	–	0	95	10	40	75	95	0	5	50	95	0	40	85	100	75	85	100	0	Foxtail, Green plant response rating (foxtail, green; postemergence, 62 g ai/ha): 0
CCCNC(=O)c1cc(OCC)n(Cc2ccnc(OC(F)F)c2)n1 [Compound 136]	–	–	–	–	–	–	–	–	–	–	–	–	–	–	–	–	–	–	–	–	Kochia plant response rating (kochia; [6]): 100; Kochia plant response rating (kochia; [7]): 100
CCCNC(=O)c1cc(CC)n(Cc2cccc(OC(F)(F)F)c2)n1 [Compound 27]	50	30	30	–	–	–	–	–	–	–	–	–	–	–	–	–	–	–	–	25	–
CCCc1cc(C(=O)NC2CC2)nn1Cc1ccnc(OC(F)F)c1 [Compound 205]	–	–	–	–	–	–	–	–	–	–	–	–	–	–	–	–	–	–	–	–	Kochia plant response rating (0 to 100 scale) (kochia; 125 g ai/ha, visual injury approx. 10 days after treatment): 100
CCCc1cc(C(=O)NCC(F)(F)F)nn1Cc1ccnc(OC(F)F)c1 [Compound 127]	–	–	–	–	–	–	–	–	–	–	–	–	–	–	–	–	–	–	–	–	Kochia plant response rating (kochia; [6]): 100; Kochia plant response rating (kochia; [7]): 100
